Source: patent US20130102595A1 (Curis, Inc., priority 2011, published 2013)

Assays:
[1] = molecular target: T1, PI3Kα (p110α/p85α) (Homo sapiens, UniProt P42336); assay: PI3Kα ADP-Glo assay; type: biochemical; details: 20 μM PIP2, 10 μM ATP, 30 minutes
T1 construct: GST (N); made in house; host or cells: Baculovirus-infected Sf9 cells
Description: (A) an In Vitro Assay which Determines the Ability of a Test Compound to Inhibit PI3Kα.
Activity of PI3Kα was measured using ADP-Glo assay from Promega. PI3Kα, a complex of N-terminal GST-tagged recombinant full-length human p110α (GenBank, Accession No. U79143) and N-terminal His tagged recombinant full length human p85a (GenBank Accession No. XM—043865) were co-expressed in a Baculovirus infected Sf9 cell expression system. The ADP-Glo assay was performed to measure the amount of ADP generated from ATP hydrolysis coupled with PIP2 phosphorylation by the purified recombinant PI3Kα (p110α/p85α). PI3Kα was incubated with 20 μM PIP2 substrate in the reaction buffer (50 mM HEPES, pH 7.4, 150 mM NaCl, 5 mM MgCl2, 1 mM DTT, 3 uM Naorthovanadate, 10 μM ATP and 0.5% DMSO) for 30 minutes at room temperature. The ADP generated was then detected by ADP-Glo assay from Promega, a luminescent ADP detection assay. The ADP-Glo assay is performed in two steps; first, after the kinase reaction, ADP-Glo Reagent is added to terminate the kinase reaction and deplete the remaining ATP. Second, the Kinase Detection Reagent is added to simultaneously convert ADP to ATP and allow the newly synthesized ATP to be measured using a luciferase/luciferin reaction.

[2] = test system: HDACs (HeLa cell nuclear extracts); assay: HDAC enzymatic activity, Biomol Color de Lys system; type: biochemical; details: 1 hour, 25° C.
Description: (E) an In Vitro Assay which Determines the Ability of a Test Compound to Inhibit HDAC Enzymatic Activity.
HDAC inhibitory activity was assessed using the Biomol Color de Lys system (AK-500, Biomol, Plymouth Meeting, Pa.). Briefly, HeLa cell nuclear extracts were used as a source of HDACs. Different concentrations of test compounds were serially diluted in dimethylsulphoxide (DMSO) and added to HeLa cell nuclear extracts in the presence of a colorimetric artificial substrate. Final assay condition contained 50 mM Tris/Cl, pH 8.0, 137 mM NaCl, 2.7 mM KCl and 1 mM MgCl2. Reactions were carried in room temperature (25° C.) for 1 hour before addition of developer for termination. Relative enzyme activity was measured in the WALLAC Victor II 1420 microplate reader as fluorescence intensity (excitation: 350-380 nm; emission: 440-460 nm). Data were analyzed using GraphPad Prism (v4.0a) with a sigmoidal dose response curve fitting for IC50 calculation.

T1 sequence (P42336 whole entry): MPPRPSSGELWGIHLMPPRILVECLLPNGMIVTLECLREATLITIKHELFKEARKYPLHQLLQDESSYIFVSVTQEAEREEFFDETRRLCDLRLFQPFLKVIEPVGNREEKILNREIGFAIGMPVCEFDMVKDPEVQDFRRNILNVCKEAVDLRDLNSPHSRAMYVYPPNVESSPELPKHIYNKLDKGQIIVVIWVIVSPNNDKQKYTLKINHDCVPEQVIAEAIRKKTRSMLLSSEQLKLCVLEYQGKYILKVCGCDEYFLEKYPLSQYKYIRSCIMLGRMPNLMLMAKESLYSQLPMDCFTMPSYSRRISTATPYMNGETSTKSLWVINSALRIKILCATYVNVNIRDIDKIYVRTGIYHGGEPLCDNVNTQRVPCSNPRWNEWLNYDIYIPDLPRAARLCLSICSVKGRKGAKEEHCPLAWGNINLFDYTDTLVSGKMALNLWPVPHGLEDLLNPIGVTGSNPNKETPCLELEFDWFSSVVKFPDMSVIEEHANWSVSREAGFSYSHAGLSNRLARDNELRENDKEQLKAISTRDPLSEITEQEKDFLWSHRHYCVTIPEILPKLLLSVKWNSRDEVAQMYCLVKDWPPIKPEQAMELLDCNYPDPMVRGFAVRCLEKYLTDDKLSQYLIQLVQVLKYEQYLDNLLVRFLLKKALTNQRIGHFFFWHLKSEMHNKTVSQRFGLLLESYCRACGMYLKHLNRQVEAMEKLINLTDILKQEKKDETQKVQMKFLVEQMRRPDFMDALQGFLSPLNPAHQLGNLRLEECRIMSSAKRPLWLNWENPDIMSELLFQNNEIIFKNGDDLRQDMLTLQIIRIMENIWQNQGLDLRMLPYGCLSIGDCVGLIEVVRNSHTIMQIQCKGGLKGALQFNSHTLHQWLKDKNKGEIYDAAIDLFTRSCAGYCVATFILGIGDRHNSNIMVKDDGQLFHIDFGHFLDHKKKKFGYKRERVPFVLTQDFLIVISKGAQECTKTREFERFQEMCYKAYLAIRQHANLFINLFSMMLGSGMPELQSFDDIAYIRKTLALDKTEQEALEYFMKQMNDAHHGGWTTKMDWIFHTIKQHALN
T1 sequence (P27986 whole entry partner): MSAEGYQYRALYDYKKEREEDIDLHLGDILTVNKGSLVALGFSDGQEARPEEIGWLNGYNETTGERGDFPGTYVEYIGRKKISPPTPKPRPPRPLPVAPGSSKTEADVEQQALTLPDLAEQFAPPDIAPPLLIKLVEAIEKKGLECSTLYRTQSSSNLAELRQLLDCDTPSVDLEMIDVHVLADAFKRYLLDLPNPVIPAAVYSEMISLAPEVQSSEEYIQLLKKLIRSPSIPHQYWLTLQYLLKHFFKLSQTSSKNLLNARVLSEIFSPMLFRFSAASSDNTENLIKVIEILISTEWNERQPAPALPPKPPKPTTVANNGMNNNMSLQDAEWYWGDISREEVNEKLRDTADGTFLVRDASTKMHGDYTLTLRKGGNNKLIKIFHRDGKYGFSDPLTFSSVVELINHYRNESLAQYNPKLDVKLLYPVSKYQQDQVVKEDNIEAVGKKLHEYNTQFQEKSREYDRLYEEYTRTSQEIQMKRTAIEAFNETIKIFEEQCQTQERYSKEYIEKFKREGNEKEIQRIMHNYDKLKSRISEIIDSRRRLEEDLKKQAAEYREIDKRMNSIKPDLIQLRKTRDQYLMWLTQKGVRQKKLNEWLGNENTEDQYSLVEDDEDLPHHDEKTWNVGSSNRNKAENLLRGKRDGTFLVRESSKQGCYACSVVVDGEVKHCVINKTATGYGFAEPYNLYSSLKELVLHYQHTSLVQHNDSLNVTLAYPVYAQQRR

IC50 [1]	IC50 [2]	SMILES
> 10000 nM	–	CS(=O)(=O)N1CCN(Cc2cc3nc(-c4cccc5[nH]ncc45)nc(NCCCCC(=O)NO)c3s2)CC1 [Compound 34]
100 to 1000 nM	< 100 nM	CN(Cc1cc2nc(-c3cccc(CCO)c3)nc(N3CCOCC3)c2s1)c1ncc(C(=O)NO)cn1 [Compound 306]
–	< 100 nM	CC(c1cc2nc(-c3ccc(N)cc3)nc(N3CCOCC3)c2s1)N(C)c1ncc(C(=O)NO)cn1 (centres unmarked) [Compound 214]
< 100 nM	< 100 nM	CNc1ccc(-c2nc(N3CCOCC3)c3sc(NCCCCC(=O)NO)cc3n2)cn1 [Compound 228, N-Hydroxy-5-(2-(6-(methylamino)pyridin-3-yl)-4-morpholino-thieno[3,2-d]pyrimidin-6-ylamino)pentanamide]
< 100 nM	< 100 nM	CC(=O)NCCN(Cc1cc2nc(-c3cccc4[nH]ncc34)nc(N3CCOCC3)c2s1)c1ncc(C(=O)NO)cn1 [Compound 96]
< 100 nM	< 100 nM	COc1ncc(-c2nc(N3CCOCC3)c3sc(NS(=O)(=O)c4ccc(/C=C/C(=O)NO)cc4)cc3n2)cn1 [Compound 219]
100 to 1000 nM	< 100 nM	CN(Cc1cc2nc(-c3ccc4[nH]ccc4c3)nc(N3CCOCC3)c2s1)c1ncc(C(=O)NO)cn1 [Compound 192]
1000 to 10000 nM	100 to 1000 nM	CCCc1nc2cc(/C=C/C(=O)NO)ccc2n1CCNCc1cc2nc(-c3ccc(N)cc3)nc(N3CCOCC3)c2s1 [Compound 325]
100 to 1000 nM	100 to 1000 nM	CCCc1nc2cc(/C=C/C(=O)NO)ccc2n1CCN(C)Cc1cc2nc(-c3ccc(NC)nc3)nc(N3CCOCC3)c2s1 [Compound 322]
100 to 1000 nM	< 100 nM	Cc1c(CN(C)c2ncc(C(=O)NO)cn2)sc2c(N3CCOCC3)nc(-c3cccc4[nH]ncc34)nc12 [Compound 68]
100 to 1000 nM	< 100 nM	CNc1ccc(-c2nc(N3CCOCC3)c3sc(C(C)(C)N(C)c4ncc(C(=O)NO)cn4)cc3n2)cn1 [Compound 241]
100 to 1000 nM	< 100 nM	COc1ccccc1Nc1nc(-c2cccc3[nH]ncc23)nc2cc(CN(C)c3ncc(C(=O)NO)cn3)sc12 [Compound 167]
< 100 nM	< 100 nM	O=C(/C=C/c1cccc(S(=O)(=O)Nc2cc3nc(-c4cccc5[nH]ncc45)nc(N4CCOCC4)c3s2)c1)NO [Compound 216]
< 100 nM	< 100 nM	COc1ccc(-c2nc(N3CCOCC3)c3sc(C(C)N(C)c4ncc(C(=O)NO)cn4)cc3n2)cn1 (centres unmarked) [Compound 247, N-hydroxy-2-((1-(2-(6-methoxypyridin-3-yl)-4-morpholino-thieno[3,2-d]pyrimidin-6-yl)ethyl)(methyl)amino)pyrimidine-5-carboxamide]
< 100 nM	< 100 nM	C#CCCN(Cc1cc2nc(-c3cccc4[nH]ncc34)nc(N3CCOCC3)c2s1)c1ncc(C(=O)NO)cn1 [Compound 98]
< 100 nM	< 100 nM	O=C(/C=C/c1ccc(S(=O)(=O)Nc2cc3nc(-c4cccc5[nH]ncc45)nc(N4CCOCC4)c3s2)cc1)NO [Compound 50]
< 100 nM	< 100 nM	CN(Cc1cc2nc(-c3cccc4[nH]ncc34)nc(N3CCOCC3)c2s1)c1ccc(C(=O)NO)cc1 [Compound 79]
< 100 nM	< 100 nM	NC(=O)CN(Cc1cc2nc(-c3cccc4[nH]ncc34)nc(N3CCOCC3)c2s1)c1ncc(C(=O)NO)cn1 [Compound 97]
< 100 nM	< 100 nM	Nc1ccc(-c2nc(N3CCOCC3)c3sc(CN(CCO)c4ncc(C(=O)NO)cn4)cc3n2)cc1F [Compound 277]
< 100 nM	< 100 nM	CCN(Cc1cc2nc(-c3cccc4[nH]ncc34)nc(N3CCOCC3)c2s1)c1ncc(C(=O)NO)cn1 [Compound 92]
> 10000 nM	–	CS(=O)(=O)N1CCN(Cc2cc3nc(-c4cccc5[nH]ncc45)nc(NCCCCCC(=O)NO)c3s2)CC1 [Compound 35]
1000 to 10000 nM	100 to 1000 nM	CN(Cc1cc2nc(-c3ccc(N)cc3)nc(N3CCOCC3)c2s1)Cc1nc2cc(/C=C/C(=O)NO)ccc2n1C [Compound 327]
< 100 nM	100 to 1000 nM	CCCc1nc2cc(/C=C/C(=O)NO)ccc2n1CCNCc1cc2nc(-c3ccc(NC)nc3)nc(N3CCOCC3)c2s1 [Compound 323]
1000 to 10000 nM	< 100 nM	CN(C)c1nc(-c2cccc3[nH]ncc23)nc2cc(CN(C)c3ncc(C(=O)NO)cn3)sc12 [Compound 159]

IC50 [1]	IC50 [2]	SMILES
< 100 nM	< 100 nM	CN(Cc1cc2nc(-c3cccc4[nH]c(=O)sc34)nc(N3CCOCC3)c2s1)c1ncc(C(=O)NO)cn1 [Compound 317]
> 10000 nM	< 100 nM	Nc1ccc(-c2nc(N3CCOCC3)c3sc(CNCc4ccc(C(=O)NO)cc4)cc3n2)cc1 [Compound 209]
< 100 nM	< 100 nM	CN(c1ncc(C(=O)NO)cn1)c1cc2nc(-c3ccc(N)cc3)nc(N3CCOCC3)c2s1 [Compound 272]
100 to 1000 nM	< 100 nM	CN(Cc1cc2nc(-c3cccc4[nH]ncc34)nc(NCCO)c2s1)c1ncc(C(=O)NO)cn1 [Compound 161]
100 to 1000 nM	< 100 nM	Nc1ccc(-c2nc(N3CCOCC3)c3sc(CN4CCN(c5ncc(C(=O)NO)cn5)CC4)cc3n2)cc1 [Compound 207]
< 100 nM	< 100 nM	CNc1ccc(-c2nc(N3CCOCC3)c3sc(NS(=O)(=O)c4cccc(/C=C/C(=O)NO)c4)cc3n2)cn1 [Compound 224]
< 100 nM	< 100 nM	NCCN(Cc1cc2nc(-c3cccc4[nH]ncc34)nc(N3CCOCC3)c2s1)c1ncc(C(=O)NO)cn1 [Compound 94]
> 10000 nM	< 100 nM	CN(Cc1cc2nc(-c3cccc4[nH]ncc34)nc(N3CCN(CCO)CC3)c2s1)c1ncc(C(=O)NO)cn1 [Compound 63]
100 to 1000 nM	< 100 nM	O=C(CCCCCNc1cc2nc(-c3cccc4[nH]ncc34)nc(N3CCOCC3)c2s1)NO [Compound 19]
< 100 nM	100 to 1000 nM	O=C(NO)c1cnc(N2CCN(S(=O)(=O)c3cc4nc(-c5cccc6[nH]ncc56)nc(N5CCOCC5)c4s3)CC2)nc1 [Compound 51]
100 to 1000 nM	< 100 nM	O=C(NO)c1cnc(NCc2cc3cc(-c4cccc5[nH]ncc45)nc(N4CCOCC4)c3s2)nc1 [Compound 73]
> 10000 nM	< 100 nM	CCN(CC)c1nc(-c2cccc3[nH]ncc23)nc2cc(CN(C)c3ncc(C(=O)NO)cn3)sc12 [Compound 158]
< 100 nM	< 100 nM	CNc1ccc(-c2nc(N3CCOCC3)c3sc(NS(=O)(=O)c4ccc(/C=C/C(=O)NO)cc4)cc3n2)cn1 [Compound 223]
100 to 1000 nM	< 100 nM	CN(Cc1cc2cc(-c3cccc4[nH]ncc34)nc(N3CCOCC3)c2s1)c1ncc(C(=O)NO)cn1 [Compound 74]
< 100 nM	< 100 nM	CN(Cc1cc2nc(-c3cccc4[nH]c(=S)[nH]c34)nc(N3CCOCC3)c2s1)c1ncc(C(=O)NO)cn1 [Compound 315]
100 to 1000 nM	< 100 nM	CC(C)(Nc1ncc(C(=O)NO)cn1)c1cc2nc(-c3cccc4[nH]ncc34)nc(N3CCOCC3)c2s1 [Compound 71]
< 100 nM	100 to 1000 nM	O=C(O)CN(Cc1cc2nc(-c3cccc4[nH]ncc34)nc(N3CCOCC3)c2s1)c1ncc(C(=O)NO)cn1 [Compound 88]
100 to 1000 nM	100 to 1000 nM	O=C(NO)c1ccc(CNCc2cc3nc(-c4cccc5[nH]ncc45)nc(N4CCOCC4)c3s2)cc1 [Compound 203]
< 100 nM	< 100 nM	CNc1ccc(-c2nc(N3CCOCC3)c3sc(CN(CCO)c4ncc(C(=O)NO)cn4)cc3n2)cn1 [Compound 245]
> 10000 nM	< 100 nM	CN(Cc1cc2nc(-c3cccc4[nH]ncc34)nc(N3CCNCC3)c2s1)c1ncc(C(=O)NO)cn1 [Compound 60]
> 10000 nM	–	CS(=O)(=O)N1CCN(Cc2cc3nc(-c4cccc5[nH]ncc45)nc(NCCCCCCC(=O)NO)c3s2)CC1 [Compound 36]
–	< 100 nM	CN(Cc1cc2nc(-c3ccc4c(c3)OCCN4)nc(N3CCOCC3)c2s1)c1ncc(C(=O)NO)cn1 [Compound 191]
< 100 nM	–	CN(Cc1cc2nc(-c3cccc4[nH]c(=O)[nH]c34)nc(N3CCOCC3)c2s1)c1ncc(C(=O)NO)cn1 [Compound 316]
–	< 100 nM	CN(c1ncc(C(=O)NO)cn1)C(C)(C)c1cc2nc(-c3ccc(N)cc3)nc(N3CCOCC3)c2s1 [Compound 270]
